Reference: patent US20110021543A1, “HETEROCYCLIC COMPOUNDS AND THEIR USE AS PESTICIDES” (priority 2007, published 2011)

Tests used:
[1] = tested on: Ctenocephalides felis (cat flea); experiment: Activity in vitro against Ctenocephalides felis (cat flea), artificial blood feeding system; conditions: at 100 ppm; adult fleas fed on treated blood for 24 hours
Description: 2. Activity In Vitro Against Ctenocephalides felis (Cat Flea). A mixed adult population of fleas is placed in a suitably formatted 96-well plate allowing fleas to access and feed on treated blood via an artificial feeding system. Each compound is tested by serial dilution in order to determine its MED. Fleas are fed on treated blood for 24 hours, after which the compound's effect is recorded. Insecticidal activity is determined on the basis of the number of dead fleas recovered from the feeding system.

[2] = tested on: Rhipicephalus sanguineus (dog tick); experiment: Activity in vitro against Rhipicephalus sanguineus (dog tick), adult tick contact test in 96-well plate; conditions: at 640 ppm, 10 minutes contact, incubated 7 days at 28° C. and 80% relative humidity
Description: 1. Activity In Vitro Against Rhipicephalus sanguineus (Dog Tick).
A clean adult tick population is used to seed a suitably formatted 96-well plate containing the test substances to be evaluated for antiparasitic activity. Each compound is tested by serial dilution in order to determine its minimal effective dose (MED). Ticks are left in contact with the test compound for 10 minutes and are then incubated at 28° C. and 80% relative humidity for 7 days, during which the test compound's effect is monitored. Acaricidal activity is confirmed if adult ticks are dead.

`CC(O)(c1cn(-c2c(Cl)cc(C(F)(F)F)cc2Cl)c2cccnc12)C(F)(F)F` (centres unmarked) [Compound 1.43, 2-[1-(2,6-Dichloro-4-trifluoromethyl-phenyl)-1H-pyrrolo[3,2-b]pyridin-3-yl]-1,1,1-trifluoro-propan-2-ol] was tested, and the “efficacy (insecticidal activity, dead fleas)” value [1] was “more than 80%” and the “efficacy (acaricidal activity, dead adult ticks)” value [2] was “more than 80%”.
